Reference: PubChem BioAssay (NCI)
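Cells were grown in 96-well plates and exposed to each compound for 48 hours at five concentrations; endpoints were interpolated linearly between bracketing concentrations, or set to the highest concentration if not reached. At the GI50, growth is halved. At the TGI there is no net growth.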

Experiments:
Assay in all cases: NCI-60 cell line screen, 48 h
[1] = test system: MDA-MB-231 breast
[2] = test system: SF-268 CNS
[3] = test system: SW-620 colon
[4] = test system: OVCAR-3 ovarian
[5] = test system: MOLT-4 leukemia
[6] = test system: NCI-H23 lung
[7] = test system: UACC-257 melanoma
[8] = test system: OVCAR-4 ovarian
[9] = test system: NCI-H460 lung
[10] = test system: SNB-19 CNS
[11] = test system: SK-OV-3 ovarian
[12] = test system: A498 renal
[13] = test system: NCI/ADR-RES ovarian
[14] = test system: MALME-3M melanoma
[15] = test system: LOX IMVI melanoma
[16] = test system: KM12 colon
[17] = test system: OVCAR-5 ovarian
[18] = test system: OVCAR-8 ovarian
[19] = test system: PC-3 prostate
[20] = test system: HT29 colon
[21] = test system: SK-MEL-2 melanoma
[22] = test system: COLO 205 colon
[23] = test system: K-562 leukemia
[24] = test system: T-47D breast
[25] = test system: BT-549 breast
[26] = test system: SN12C renal
[27] = test system: SNB-75 CNS
[28] = test system: SK-MEL-5 melanoma
[29] = test system: CAKI-1 renal
[30] = test system: RPMI-8226 leukemia
[31] = test system: HS 578T breast
[32] = test system: UACC-62 melanoma
[33] = test system: UO-31 renal
[34] = test system: HCT-116 colon
[35] = test system: SF-295 CNS
[36] = test system: MDA-MB-435
[37] = test system: DU-145 prostate
[38] = test system: HCC-2998 colon
[39] = test system: M14 melanoma
[40] = test system: RXF 393 renal
[41] = test system: HCT-15 colon
[42] = test system: A549 NSCLC
[43] = test system: MCF7 breast
[44] = test system: NCI-H226 lung
[45] = test system: HOP-92 NSCLC
[46] = test system: NCI-H522 lung
[47] = test system: SK-MEL-28 melanoma
[48] = test system: TK-10 renal
[49] = test system: HL-60(TB) leukemia
[50] = test system: U251 CNS
[51] = test system: HOP-62 NSCLC
[52] = test system: 786-0 renal
[53] = test system: ACHN renal
[54] = test system: EKVX NSCLC
[55] = test system: IGROV1 ovarian
[56] = test system: CCRF-CEM leukemia

Molecule `NC(N)=NN=C(c1ccccc1)c1ccccc1` has a GI50 [1] of 4.3 µM, a TGI [1] of 40.8 µM and a GI50 [2] of 6.8 µM. For the same molecule, the TGI [2] was > 100 µM, the GI50 [3] was 3.63 µM and the TGI [3] was 41.5 µM. It also gave a GI50 [4] of 2.15 µM, a TGI [4] of 5.49 µM and a GI50 [5] of 8.82 µM. The TGI [5] was 91.7 µM, the GI50 [6] was 6.04 µM and the TGI [6] was > 100 µM. It also gave a GI50 [7] of 9.79 µM, a TGI [7] of 41.9 µM and a GI50 [8] of 5.16 µM. For the same molecule, the TGI [8] was 93.6 µM, the GI50 [9] was 3.51 µM and the TGI [9] was 17.3 µM. The GI50 [10] was 7.69 µM, the TGI [10] was > 100 µM and the GI50 [11] was 3.31 µM. The TGI [11] was 23.7 µM, the GI50 [12] was 3.49 µM and the TGI [12] was > 100 µM. The GI50 [13] was 19.7 µM, the TGI [13] was > 100 µM and the GI50 [14] was 2.99 µM. The TGI [14] was 19.1 µM, the GI50 [15] was 6.09 µM and the TGI [15] was 51.8 µM. For the same molecule, the GI50 [16] was 2.53 µM, the TGI [16] was 20 µM and the GI50 [17] was 7.94 µM. For the same molecule, the TGI [17] was > 100 µM, the GI50 [18] was 3.87 µM and the TGI [18] was 39.8 µM. For the same molecule, the GI50 [19] was 2.95 µM, the TGI [19] was > 100 µM and the GI50 [20] was 2.89 µM. It also gave a TGI [20] of 17.8 µM, a GI50 [21] of 2.16 µM and a TGI [21] of 13.9 µM. For the same molecule, the GI50 [22] was 1.91 µM, the TGI [22] was 4.19 µM and the GI50 [23] was 4.35 µM. The TGI [23] was 27.5 µM, the GI50 [24] was 6.65 µM and the TGI [24] was > 100 µM. It also gave a GI50 [25] of 5.51 µM, a TGI [25] of 65.3 µM and a GI50 [26] of 6.25 µM. For the same molecule, the TGI [26] was > 100 µM, the GI50 [27] was 3.49 µM and the TGI [27] was > 100 µM. For the same molecule, the GI50 [28] was 3.06 µM, the TGI [28] was 14.7 µM and the GI50 [29] was 3.77 µM. The TGI [29] was > 100 µM, the GI50 [30] was 3.97 µM and the TGI [30] was 17.8 µM. The GI50 [31] was 1.78 µM, the TGI [31] was 7.91 µM and the GI50 [32] was 4.64 µM. The TGI [32] was 42.5 µM, the GI50 [33] was 4.48 µM and the TGI [33] was > 100 µM. For the same molecule, the GI50 [34] was 3.53 µM, the TGI [34] was 89.7 µM and the GI50 [35] was 2.9 µM. It also gave a TGI [35] of 16 µM, a GI50 [36] of 0.612 µM and a TGI [36] of 2.94 µM. For the same molecule, the GI50 [37] was 3.45 µM, the TGI [37] was > 100 µM and the GI50 [38] was 4.49 µM. For the same molecule, the TGI [38] was 20.4 µM, the GI50 [39] was 2.64 µM and the TGI [39] was 9.3 µM. For the same molecule, the GI50 [40] was 1.71 µM, the TGI [40] was 3.93 µM and the GI50 [41] was 3.25 µM. For the same molecule, the TGI [41] was > 100 µM, the GI50 [42] was 4.03 µM and the TGI [42] was > 100 µM. It also gave a GI50 [43] of 2.28 µM, a TGI [43] of 41.7 µM and a GI50 [44] of 14.1 µM. For the same molecule, the TGI [44] was > 100 µM, the GI50 [45] was 2.14 µM and the TGI [45] was 55.1 µM. The GI50 [46] was 2.38 µM, the TGI [46] was 8.51 µM and the GI50 [47] was 5.82 µM. The TGI [47] was 36.9 µM, the GI50 [48] was 5.75 µM and the TGI [48] was > 100 µM. The GI50 [49] was 3.11 µM, the TGI [49] was 12.1 µM and the GI50 [50] was 3.5 µM. For the same molecule, the TGI [50] was 24.6 µM, the GI50 [51] was 6.75 µM and the TGI [51] was > 100 µM. It also gave a GI50 [52] of 4.71 µM, a TGI [52] of 36.2 µM and a GI50 [53] of 4.13 µM. The TGI [53] was > 100 µM, the GI50 [54] was 6.82 µM and the TGI [54] was > 100 µM. For the same molecule, the GI50 [55] was 4.32 µM, the TGI [55] was 87.6 µM and the GI50 [56] was 4.38 µM. The TGI [56] was > 100 µM.
